Consider one compound from EPA's ToxValDB 9.5 (doi:10.2903/j.efsa.2010.1631).

As a reminder, the NOAEL is the highest dose or exposure tested at which no adverse effect was seen.

For one data set, the system named is Apis mellifera. The settings on record: acute; duration: 48 hours; dermal; mortality.
The next data set concerns Anas platyrhynchos. The settings on record: acute; oral; unspecified; mortality.
The subject of the next data set is Mus musculus. The settings on record: acute; oral; mortality.
The subject of another data set is Bibionidae. The settings on record: chronic/long-term; duration: 28 days.
In a further data set the test system is Tagia sp. To be noted: acute; duration: 14 days; mortality.
The next data set has as its system Canidae. To be noted: oral, Dog Other, body weight.
The test system of a further data set is Pimephales promelas. The settings on record: chronic/long-term; duration: 30 days; growth.
Another data set concerns Coturnix coturnix. The settings on record: acute; oral; mortality.
The test system of another data set is Daphnia magna. To be noted: chronic/long-term; duration: 21 days; reproduction.
In the next data set the test system is Cyprinus carpio. The settings on record: acute; duration: 96 hours; mortality.
The conditions of data set [1]: chronic/long-term; development.
For the next data set, the system named is Aphidius rhopalosiphi. Put plainly: LR50; higher = less toxic. To be noted: not reported; mortality.

As for `CC(=O)O.CCCCCCCCCCCCN=C(N)N` [Dodecylguanidine acetate], the LD50 in the data set on Apis mellifera is > 100 µg/piece; in the data set on Anas platyrhynchos, 857 mg/kg-day; in the data set with Rattus norvegicus (acute, oral, mortality), 851 mg/kg-day; in the data set with Mus musculus, 1350 mg/kg-day; in the data set on Coturnix coturnix, 981 mg/kg-day. Further, the NOEL in the data set with Rattus norvegicus (chronic, body weight) was 18.6 mg/kg-day; in data set [1], 45 mg/kg-day. The NOAEL in the data set with Rattus norvegicus (reproduction developmental, body weight) came to 10 mg/kg-day; in the data set on Canidae (chronic, duration: 1 years), 10 mg/kg-day; in the data set on Canidae (subchronic, duration: 90 days), 10 mg/kg-day. The NOEC in the data set on Bibionidae is 3.2 mg/L; with Tagia sp., 171 mg/kg; with Pimephales promelas, 0.099 mg/L; with Daphnia magna, 0.0044 mg/L. In addition, the values for the LC50 in the data set on Tagia sp. and in the data set with Cyprinus carpio were 547 mg/kg and 0.6 µg/mL, respectively. For the same compound, the LR50 with Aphidius rhopalosiphi was > 1800 g/ha.
